Data published in paper PMC10133576, “Interactions between curcumin and human salt-induced kinase 3 elucidated from computational tools and experimental methods” (Frontiers in Pharmacology, 2023).

Biological target: human salt-induced kinase 3 (SIK3) (Homo sapiens, UniProt Q9Y2K2)
Experiment: KinaseProfiler radiometric protein kinase assay (Eurofins), ATP at Km
Type: biochemical

Sequence of human salt-induced kinase 3 (SIK3) (Q9Y2K2 whole entry): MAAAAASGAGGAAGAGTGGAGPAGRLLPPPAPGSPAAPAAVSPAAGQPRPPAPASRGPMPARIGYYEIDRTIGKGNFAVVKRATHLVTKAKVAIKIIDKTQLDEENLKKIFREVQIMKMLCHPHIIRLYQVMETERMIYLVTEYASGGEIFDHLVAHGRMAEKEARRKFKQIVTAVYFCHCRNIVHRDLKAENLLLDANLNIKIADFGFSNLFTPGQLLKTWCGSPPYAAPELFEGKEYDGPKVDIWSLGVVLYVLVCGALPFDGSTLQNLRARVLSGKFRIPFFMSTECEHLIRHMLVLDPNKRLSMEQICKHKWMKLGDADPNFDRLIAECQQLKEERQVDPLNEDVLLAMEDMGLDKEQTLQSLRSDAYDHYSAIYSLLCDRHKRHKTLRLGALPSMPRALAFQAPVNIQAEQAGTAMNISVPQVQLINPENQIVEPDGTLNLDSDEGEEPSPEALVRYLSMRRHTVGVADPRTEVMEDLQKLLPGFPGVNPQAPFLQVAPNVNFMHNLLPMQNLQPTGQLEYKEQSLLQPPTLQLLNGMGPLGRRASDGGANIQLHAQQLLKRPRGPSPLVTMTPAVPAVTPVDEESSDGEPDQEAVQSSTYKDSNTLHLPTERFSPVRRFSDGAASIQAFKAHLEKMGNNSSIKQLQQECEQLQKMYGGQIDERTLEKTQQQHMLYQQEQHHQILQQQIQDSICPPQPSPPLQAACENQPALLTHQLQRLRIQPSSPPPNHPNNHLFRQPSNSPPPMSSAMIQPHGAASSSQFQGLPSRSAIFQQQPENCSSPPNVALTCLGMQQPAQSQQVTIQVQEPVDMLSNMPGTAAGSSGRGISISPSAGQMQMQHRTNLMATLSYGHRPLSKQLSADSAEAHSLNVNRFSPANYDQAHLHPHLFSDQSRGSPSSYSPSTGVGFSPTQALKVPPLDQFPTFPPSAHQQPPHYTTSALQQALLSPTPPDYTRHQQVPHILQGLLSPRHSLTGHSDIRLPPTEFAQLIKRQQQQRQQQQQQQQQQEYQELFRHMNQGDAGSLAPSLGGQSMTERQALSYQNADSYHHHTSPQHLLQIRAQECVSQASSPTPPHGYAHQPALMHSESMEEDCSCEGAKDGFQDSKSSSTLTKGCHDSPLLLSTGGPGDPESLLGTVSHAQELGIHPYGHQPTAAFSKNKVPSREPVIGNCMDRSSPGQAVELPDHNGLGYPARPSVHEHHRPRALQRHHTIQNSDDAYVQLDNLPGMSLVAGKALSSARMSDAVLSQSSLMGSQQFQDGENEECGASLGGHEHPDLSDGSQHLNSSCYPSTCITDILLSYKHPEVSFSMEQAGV

IC50: 0.131 µM
Compound: COc1cc(/C=C/C(=O)CC(=O)/C=C/c2ccc(O)c(OC)c2)ccc1O [curcumin]
